Where “and” joins values, the source holds several entries; their conditions need not be identical. Equal values may be shown once. Read-outs that look alike come from different tables or passages of the source.
Test system: H460 cells
Assay: Cytotoxicity: anti-proliferation activity on H460 cells, multi-well Alamar Blue based assay
Assay type: cell-based
Procedure: Cell growth in the presence and absence of the test compound was compared following a multi-well Alamar Blue based assay, and measured by a fluorescence plate reader at 550 nm excitation and 590 nm emission (see Biosource International Inc., Tech Application Notes, Use of Alamar Blue in the measurement of Cell Viability and Toxicity, Determining IC50). H460 cells (ATCC HTB-177 (NCl—H40), 4,000 cells/well/200 μl) were seeded in a 96 well plate in RPMI medium (Invitrogen Corporation, Carlsbad, Calif.). After 24 hours, these plates were divided into 3 groups—Control group, 2 h treatment group and 3 day treatment group. A test compound was added in a range of concentration to each plate in the treatment groups (2 h and 3 day). In the 2 h treatment group, after 2 h, the H460 cells were rinsed to remove the test compound, incubated for 3 days, and stained with AlamarBlue. The cells in the 3-day treatment group were incubated along with the test compound for 3 days, followed by staining with AlamarBlue. In the Control group, AlamarBlue was added to the plate at (i) day 0 and (ii) day 3 and the fluorescence emission measured to establish the control reading. In all the groups, the capacity of the cells to proliferate was measured 6 hours after addition of AlamarBlue by a fluorescence plate reader at 550 nm excitation and 590 nm emission.

[1] = read-out: GI90 (the source's name)
[2] = Homo sapiens, NCI-H460, 72 h, read-out: GI50 (concentration required to inhibit cellular proliferation by 50%)
[3] = Homo sapiens, NCI-H460, read-out: GI50 (concentration required to inhibit cellular proliferation by 50%)
[4] = Homo sapiens, NCI-H460, 2 h, read-out: GI90
[5] = Homo sapiens, NCI-H460, 72 h, read-out: GI90
[6] = Homo sapiens, NCI-H460, 72 h, H460 cells, 3 day incubation with compound, AlamarBlue, read-out: GI50 (concentration required to inhibit cellular proliferation by 50%)
[7] = Homo sapiens, NCI-H460, 72 h, H460 cells, 3 day incubation with compound, AlamarBlue, read-out: GI90 (the source's name)
[8] = Homo sapiens, NCI-H460, H460 cells, 2 h treatment, rinsed, then incubated for 3 days, AlamarBlue, read-out: GI50 (concentration required to inhibit cellular proliferation by 50%)
[9] = Homo sapiens, NCI-H460, H460 cells, 2 h treatment, rinsed, then incubated for 3 days, AlamarBlue, read-out: GI90 (the source's name)
[10] = read-out: GI50 (concentration required to inhibit cellular proliferation by 50%)

Compound	GI50 [2]	GI50 [3]	IC90 [4]	IC90 [5]	other results
COc1cccc2c1C(=O)c1c(O)c3c(c(O)c1C2=O)CC(O)(C(C)=O)CC3OC1CC(N2CCN(C(C)=O)CC2)C(O)C(C)O1 (centres unmarked) [Compound 46]					IC90 [1]: 158.50 nM and 100.00 nM
COc1cccc2c1C(=O)c1c(O)c3c(c(O)c1C2=O)C[C@@](O)(C(C)=O)C[C@@H]3O[C@H]1CC(NC(C#N)COCCCl)C(O)[C@H](C)O1 (some centres unmarked) [Compound 53]	2.5 nM	15.8 nM			
COc1cccc2c1C(=O)c1c(O)c3c(c(O)c1C2=O)C[C@@](O)(C(C)=O)C[C@@H]3O[C@H]1CC(N2CCN(C(=O)C(F)(F)F)CC2)C(O)[C@H](C)O1 (some centres unmarked) [Compound 45]					IC90 [1]: 1000 nM and 630 nM
COc1cccc2c1C(=O)c1c(O)c3c(c(O)c1C2=O)C[C@@](O)(C(C)=O)C[C@@H]3O[C@H]1CC2C(OC3CN(C(=O)OCc4cnc([N+](=O)[O-])n4C)CCN32)[C@H](C)O1 (some centres unmarked) [Compound 28]	0.4 nM	0.03 nM	0.1 nM	1.26 nM	
COCCOC(=O)N1CCN2C(C1)OC1C2C[C@H](O[C@H]2C[C@](O)(C(=O)CO)Cc3c(O)c4c(c(O)c32)C(=O)c2c(OC)cccc2C4=O)O[C@@H]1C (some centres unmarked) [Compound 50]					GI50 [6]: 0.16 nM; IC90 [7]: 0.32 nM; GI50 [8]: 0.13 nM; IC90 [9]: 0.4 nM
COc1cccc2c1C(=O)c1c(O)c3c(c(O)c1C2=O)C[C@@](O)(C(C)=O)C[C@@H]3O[C@H]1CC(NC(COCCOS(=O)(=O)c2ccc(C)cc2)OC)C(O)[C@H](C)O1 (some centres unmarked) [Compound 51]		2.5 nM			
COc1cccc2c1C(=O)c1c(O)c3c(c(O)c1C2=O)C[C@@](O)(C(C)=O)C[C@@H]3O[C@H]1CC(N2CCOCC2C#N)C(OC(=O)OCC(C)C)[C@H](C)O1 (some centres unmarked) [Compound 57]	1.58 nM	125 nM	316 nM	10 nM	
COc1cccc2c1C(=O)c1c(O)c3c(c(O)c1C2=O)C[C@@](O)(C(C)=O)C[C@@H]3O[C@@H]1CC(N2CCN(C(=O)OCc3ccc([N+](=O)[O-])o3)CC2C#N)C(O)[C@H](C)O1 (some centres unmarked) [Compound 5]					GI50 [6]: 1 nM; IC90 [7]: 4 nM; GI50 [8]: 3.2 nM; IC90 [9]: 10 nM
COc1cccc2c1C(=O)c1c(O)c3c(c(O)c1C2=O)C[C@]1(O)C[C@@H]3O[C@H]2CC([C@H](O)[C@H](C)O2)N2CCOCC2OCC1=O (some centres unmarked) [Compound 58]					GI50 [6]: 0.14 nM; IC90 [7]: 0.6 nM; GI50 [8]: 0.3 nM; IC90 [9]: 1 nM
COc1cccc2c1C(=O)c1c(O)c3c(c(O)c1C2=O)C[C@@](O)(C(C)=O)C[C@@H]3O[C@H]1CC(N2CCOCC2O)C(O)[C@H](C)O1 (some centres unmarked) [Compound 59]	50 nM	200 nM	1000 nM	200 nM	
COc1cccc2c1C(=O)c1c(O)c3c(c(O)c1C2=O)C[C@@](O)(C(O)CO)C[C@@H]3O[C@H]1CC(N2CCN(C(=O)OC(C)(C)C)CC2)[C@H](O)[C@H](C)O1 (some centres unmarked) [Compound 49]	20 nM	63.1 nM	158 nM	100 nM	
COc1cccc2c1C(=O)c1c(O)c3c(c(O)c1C2=O)C[C@@](O)(C(O)CO)C[C@@H]3O[C@H]1CC(N2CCN(C(=O)OC(C)(C)C)CC2C#N)[C@H](O)[C@H](C)O1 (some centres unmarked) [Compound 13]	4 nM	10 nM	50.1 nM	20 nM	
COc1cccc2c1C(=O)c1c(O)c3c(c(O)c1C2=O)C[C@@](O)(C(C)=O)C[C@@H]3O[C@H]1CC(NC(C#N)COCCOS(=O)(=O)c2ccc(C)cc2)C(O)[C@H](C)O1 (some centres unmarked) [Compound 52]		0.3 nM			
COc1cccc2c1C(=O)c1c(O)c3c(c(O)c1C2=O)C[C@@](O)(C(C)=O)C[C@@H]3O[C@H]1CC(N2CCN(C(=O)OCC(C)C)CC2)C(O)[C@H](C)O1 (some centres unmarked) [Compound 47]	20 nM	126 nM	398 nM	100 nM	
COCCOC(=O)N1CCN(C2C[C@H](O[C@H]3C[C@](O)(C(C)=O)Cc4c(O)c5c(c(O)c43)C(=O)c3c(OC)cccc3C5=O)O[C@H](C)C2O)C(C#N)C1 (some centres unmarked) [Compound 14]	0.2 nM	0.2 nM	0.4 nM	0.63 nM	
COc1cccc2c1C(=O)c1c(O)c3c(c(O)c1C2=O)C[C@@](O)(C(C)=O)C[C@@H]3O[C@H]1CC(N2CCN(C(=O)OCc3cnc([N+](=O)[O-])n3C)CC2C#N)C(O)[C@H](C)O1 (some centres unmarked) [Compound 3]					GI50 [10]: 2.5 nM and 1.3 nM; IC90 [1]: 7.90 nM and 4.00 nM
COc1cccc2c1C(=O)c1c(O)c3c(c(O)c1C2=O)CC(O)(C(C)=O)CC3OC1CC(N2CCN(C(=O)OCC3c4ccccc4-c4ccccc43)CC2)C(O)C(C)O1 (centres unmarked) [Compound 44]					IC90 [1]: 501 nM
COc1cccc2c1C(=O)c1c(O)c3c(c(O)c1C2=O)C[C@@](O)(C(C)=O)C[C@@H]3O[C@H]1CC(N2CCN(C(=O)OCc3cnc([N+](=O)[O-])n3C)CC2)C(O)[C@H](C)O1 (some centres unmarked) [Compound 33]					GI50 [10]: 20 nM and 10 nM; IC90 [1]: 79 nM and 50 nM
COc1cccc2c1C(=O)c1c(O)c3c(c(O)c1C2=O)C[C@@](O)(C(C)=O)C[C@@H]3O[C@H]1CC(N2CCN(C(=O)CC(C)(C)C)CC2)C(O)[C@H](C)O1 (some centres unmarked) [Compound 48]	63.1 nM	141 nM	398 nM	200 nM	
COc1cccc2c1C(=O)c1c(O)c3c(c(O)c1C2=O)C[C@@](O)(C(=O)COC(=O)OCc1cnc([N+](=O)[O-])n1C)C[C@@H]3O[C@H]1CC(N2CCOCC2C#N)[C@H](O)[C@H](C)O1 (some centres unmarked) [Compound 60]	0.1 nM	0.79 nM	2.5 nM	0.2 nM	

From patent US20070060534A1, “Anthracycline analogs” (Threshold Pharmaceuticals, Inc., priority 2005, published 2007)
